Data reported in PubChem BioAssay (NCI).
Where “and” joins values, the source holds several entries; their conditions need not be identical. Identical values can stand only once.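 1) Cells in 96-well plates. 2) Compound, 48 h, 5 concentrations. 3) Linear interpolation between surrounding doses. 4) Unreached endpoint = highest concentration. At the GI50, growth is halved. Definition used: TGI = concentration required for complete inhibition of growth.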

Tests used:
Test in all cases: DTP human tumour cell line panel, 48 h
SF-295 CNS = system: SF-295 CNS
RPMI-8226 leukemia = system: RPMI-8226 leukemia
786-0 renal = system: 786-0 renal
DU-145 prostate = system: DU-145 prostate
A549 NSCLC = system: A549 NSCLC
EKVX NSCLC = system: EKVX NSCLC
MDA-MB-231 breast = system: MDA-MB-231 breast
OVCAR-5 ovarian = system: OVCAR-5 ovarian
CAKI-1 renal = system: CAKI-1 renal
SW-620 colon = system: SW-620 colon
MDA-MB-435 = system: MDA-MB-435

For `CCOC(=O)c1ccc(NC(=O)O/N=C(/Cl)CCl)cc1`, the TGI (SF-295 CNS) was > 100 µM, the TGI (RPMI-8226 leukemia) was > 100 µM and the TGI (786-0 renal) was > 100 µM. The TGI (DU-145 prostate) was > 100 µM, the TGI (A549 NSCLC) was > 100 µM and the TGI (EKVX NSCLC) was > 100 µM. For the same compound, the TGI (MDA-MB-231 breast) was > 100 µM, the TGI (OVCAR-5 ovarian) was > 100 µM and the TGI (CAKI-1 renal) was > 100 µM. The TGI (SW-620 colon) was > 100 µM.

For `O=C1NC(=S)NNC12c1ccccc1-c1ccccc12`, the TGI (RPMI-8226 leukemia) was > 10 µM, the TGI (786-0 renal) was > 10 µM and the TGI (DU-145 prostate) was > 10 µM. For the same compound, the TGI (A549 NSCLC) was > 10 µM, the TGI (EKVX NSCLC) was > 10 µM and the TGI (MDA-MB-231 breast) was > 10 µM. For the same compound, the TGI (CAKI-1 renal) was > 10 µM and the TGI (SW-620 colon) was > 10 µM.

`O=C(NC(CO)Cc1ccc(Oc2cc(CC(CO)NC(=O)OCc3ccccc3)ccc2OC(=O)OCc2ccccc2)cc1)OCc1ccccc1` (stereo not given) was tested, and the TGI (SF-295 CNS) was 35.2 µM, the TGI (RPMI-8226 leukemia) was 31 µM and the TGI (786-0 renal) was > 100 µM. The TGI (DU-145 prostate) was 51.3 µM, the TGI (A549 NSCLC) was > 100 µM and the TGI (EKVX NSCLC) was 47.8 µM. For the same compound, the TGI (MDA-MB-435) was 45 µM, the TGI (OVCAR-5 ovarian) was > 100 µM and the TGI (CAKI-1 renal) was > 100 µM. For the same compound, the TGI (SW-620 colon) was > 100 µM.

Compound `COc1ccc(C(=O)/C=C/c2ccncc2)cc1OC` has a TGI (SF-295 CNS) of 29.9 µM, a TGI (786-0 renal) of 23.5 µM and a TGI (DU-145 prostate) of 31.6 µM. For the same compound, the TGI (A549 NSCLC) was 29.3 µM, the TGI (EKVX NSCLC) was 30.5 µM and the TGI (MDA-MB-435) was 28.1 µM. It also gave a TGI (MDA-MB-231 breast) of 24.3 µM, a TGI (OVCAR-5 ovarian) of 27.3 µM and a TGI (CAKI-1 renal) of 29.2 µM.

For `COc1ccc(-c2c(C#N)c(O)n(NS(=O)(=O)c3ccc(C)cc3)c(=O)c2C#N)cc1`, the TGI (SF-295 CNS) was > 100 µM, the TGI (RPMI-8226 leukemia) was 54.3 µM and the TGI (786-0 renal) was > 100 µM. For the same compound, the TGI (A549 NSCLC) was > 100 µM, the TGI (EKVX NSCLC) was > 100 µM and the TGI (MDA-MB-435) was > 100 µM. The TGI (MDA-MB-231 breast) was > 100 µM, the TGI (OVCAR-5 ovarian) was > 100 µM and the TGI (CAKI-1 renal) was > 100 µM. For the same compound, the TGI (SW-620 colon) was > 100 µM.

In the case of `COc1ccc(CCN=C2OCc3ccccc32)cc1OC`, the TGI (SF-295 CNS) was > 100 µM, the TGI (786-0 renal) was > 100 µM and the TGI (DU-145 prostate) was > 100 µM. For the same compound, the TGI (A549 NSCLC) was > 100 µM, the TGI (EKVX NSCLC) was > 100 µM and the TGI (MDA-MB-435) was > 100 µM. The TGI (MDA-MB-231 breast) was > 100 µM, the TGI (CAKI-1 renal) was > 100 µM and the TGI (SW-620 colon) was > 100 µM.

With `Cc1ccc(C(=O)N/N=C(\N=Nc2ccccc2[N+](=O)[O-])c2ccc(N(C)C)cc2)cc1` the TGI (SF-295 CNS) was > 100 µM, the TGI (RPMI-8226 leukemia) was > 100 µM and the TGI (786-0 renal) was > 100 µM. The TGI (A549 NSCLC) was > 100 µM, the TGI (EKVX NSCLC) was > 100 µM and the TGI (MDA-MB-435) was > 100 µM. The TGI (MDA-MB-231 breast) was > 100 µM, the TGI (OVCAR-5 ovarian) was > 100 µM and the TGI (CAKI-1 renal) was > 100 µM. The TGI (SW-620 colon) was > 100 µM.

For `COc1ccc(N2C(=O)CS(=O)(=O)C2c2cccc(Oc3ccccc3)c2)cc1` (stereo not given), the TGI (SF-295 CNS) was > 100 µM, the TGI (786-0 renal) was 21.1 µM and the TGI (DU-145 prostate) was > 100 µM. For the same compound, the TGI (A549 NSCLC) was > 100 µM, the TGI (EKVX NSCLC) was 47.8 µM and the TGI (MDA-MB-435) was 7.08 µM. The TGI (MDA-MB-231 breast) was 7.6 µM, the TGI (OVCAR-5 ovarian) was > 100 µM and the TGI (CAKI-1 renal) was 19.3 µM. The TGI (SW-620 colon) was > 100 µM.

With `CC(=C\c1ccccc1)/C=C(\C#N)C(N)=O` the TGI (SF-295 CNS) was > 10 µM, the TGI (786-0 renal) was > 10 µM and the TGI (DU-145 prostate) was > 10 µM. For the same compound, the TGI (EKVX NSCLC) was > 10 µM, the TGI (MDA-MB-435) was > 10 µM and the TGI (MDA-MB-231 breast) was > 10 µM. The TGI (OVCAR-5 ovarian) was > 10 µM, the TGI (CAKI-1 renal) was > 10 µM and the TGI (SW-620 colon) was > 10 µM.

With `O=C1/C(=C/c2ccccc2)NC(=S)N1CN1CCOCC1` the TGI (SF-295 CNS) was > 100 µM, the TGI (RPMI-8226 leukemia) was > 100 µM and the TGI (786-0 renal) was > 100 µM. For the same compound, the TGI (DU-145 prostate) was > 100 µM, the TGI (A549 NSCLC) was > 100 µM and the TGI (EKVX NSCLC) was > 100 µM. For the same compound, the TGI (MDA-MB-435) was > 100 µM, the TGI (MDA-MB-231 breast) was > 100 µM and the TGI (OVCAR-5 ovarian) was > 100 µM. The TGI (SW-620 colon) was > 100 µM.

For `O=C(CC(=O)c1ccccc1)CC(O)(c1ccccc1)c1ccccc1`, the TGI (SF-295 CNS) was 17.1 µM, the TGI (RPMI-8226 leukemia) was > 100 µM and the TGI (OVCAR-5 ovarian) was 25.6 µM. For the same compound, the TGI (CAKI-1 renal) was 13.4 µM and the TGI (SW-620 colon) was 18.1 µM.

For `O=C(c1cc(Cl)cc(Cl)c1)N1CCN(C(=O)c2cc(Cl)cc(Cl)c2)C1=S`, the TGI (SF-295 CNS) was 44.7 µM, the TGI (786-0 renal) was 7.58 µM and the TGI (DU-145 prostate) was 21.5 µM. The TGI (A549 NSCLC) was 44.6 µM, the TGI (EKVX NSCLC) was 31.9 µM and the TGI (MDA-MB-435) was 29.9 µM. It also gave a TGI (MDA-MB-231 breast) of 31.9 µM, a TGI (OVCAR-5 ovarian) of 42.2 µM and a TGI (CAKI-1 renal) of 25.2 µM. The TGI (SW-620 colon) was > 50.5 µM.

Work on `CC[C@]1(Cc2ccc(OC)c(OC)c2)[C@@H]2C[C@@H](C3OCCO3)ON2O[C@H](OC2CCCC2(c2ccccc2)c2ccccc2)[C@@H]1OC(C)=O` (stereo not given in full) yielded a TGI (SF-295 CNS) of 39.1 µM, a TGI (786-0 renal) of 41.1 µM and a TGI (DU-145 prostate) of 83.9 µM. For the same compound, the TGI (A549 NSCLC) was 79.5 µM, the TGI (EKVX NSCLC) was 44.6 µM and the TGI (MDA-MB-435) was 46.9 µM. The TGI (MDA-MB-231 breast) was > 100 µM, the TGI (OVCAR-5 ovarian) was 36 µM and the TGI (CAKI-1 renal) was 82.1 µM. For the same compound, the TGI (SW-620 colon) was > 100 µM.

With `CC12CC(C#N)(C#N)C(C#N)(CO1)C(=N)O2` (stereo not given) the TGI (SF-295 CNS) was > 100 µM, the TGI (786-0 renal) was > 100 µM and the TGI (DU-145 prostate) was > 100 µM. The TGI (A549 NSCLC) was > 100 µM, the TGI (EKVX NSCLC) was > 100 µM and the TGI (MDA-MB-435) was > 100 µM. For the same compound, the TGI (MDA-MB-231 breast) was > 100 µM, the TGI (OVCAR-5 ovarian) was > 100 µM and the TGI (CAKI-1 renal) was > 100 µM. The TGI (SW-620 colon) was > 100 µM.

With `CC12CCC3C(CCC4=CC(O)CCC43C=O)C1(O)CCC2c1ccc(=O)oc1` (stereo not given) the GI50 (SF-295 CNS) was 0.05 µM, the TGI (SF-295 CNS) was 0.0466 µM and 0.107 µM and the GI50 (RPMI-8226 leukemia) was 0.0238 µM. For the same compound, the TGI (RPMI-8226 leukemia) was 0.237 µM and 0.273 µM, the GI50 (A549 NSCLC) was 0.00452 µM and the TGI (A549 NSCLC) was 0.02 µM. It also gave a TGI (EKVX NSCLC) of 0.059 µM, a GI50 (OVCAR-5 ovarian) of 0.00511 µM and a GI50 (CAKI-1 renal) of 0.008 µM. The TGI (CAKI-1 renal) was 0.0627 µM, the GI50 (SW-620 colon) was 0.00909 µM and the TGI (SW-620 colon) was 0.0967 µM and 0.062 µM.

For `COc1cc2c(cc1O)C1C(O)C(O)C=C3CCN(C2)C31` (stereo not given), the TGI (SF-295 CNS) was 17.6 µM, the TGI (RPMI-8226 leukemia) was 11.7 µM and the TGI (786-0 renal) was 11.9 µM. The TGI (A549 NSCLC) was 10.5 µM, the TGI (EKVX NSCLC) was 14.8 µM and the TGI (OVCAR-5 ovarian) was 24.6 µM. The TGI (CAKI-1 renal) was 10.1 µM and the TGI (SW-620 colon) was 12.6 µM.
